According to patent US8658639B2, “N-substituted-cyclic amino derivative” (Dainippon Sumitomo Pharma Co., Ltd, priority 2009, dated 2014):

Assays:
Recombinant human renin = target: T1, Recombinant human renin (Homo sapiens, UniProt P00797); assay: In vitro renin inhibitory activity assay; type: biochemical; details: recombinant human renin 4.2 ng/mL, substrate 4 μM, 37° C., one hour, pH 7.4
T1 sequence (P00797 67-406): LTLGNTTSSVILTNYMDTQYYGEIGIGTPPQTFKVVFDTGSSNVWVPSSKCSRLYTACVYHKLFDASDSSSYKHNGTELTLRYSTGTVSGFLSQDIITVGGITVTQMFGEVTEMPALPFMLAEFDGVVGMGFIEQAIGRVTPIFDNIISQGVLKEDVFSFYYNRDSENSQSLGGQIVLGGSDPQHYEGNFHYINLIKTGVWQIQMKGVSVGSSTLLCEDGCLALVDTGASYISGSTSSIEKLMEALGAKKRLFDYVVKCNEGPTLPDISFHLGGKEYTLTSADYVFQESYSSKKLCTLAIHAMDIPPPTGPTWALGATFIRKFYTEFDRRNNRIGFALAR
Procedure: Experiment 1: In Vitro Renin Inhibitory Activity Assay
Recombinant human renin (4.2 ng/mL) was reacted in 0.1M HEPES buffer (pH 7.4) containing 0.1M NaCl, 1 mM EDTA and 0.1 mg/mL BSA together with a substrate and a test compound at 37° C. for one hour. As the substrate, Arg-Glu(EDANS)-Ile-His-Pro-Phe-His-Leu-Val-Ile-His-Thr-Lys(DABCYL)-Arg (SEQ ID NO: 1) or DABCYL-γ-Abu-Ile-His-Pro-Phe-His-Leu-Val-Ile-His-Thr-EDANS (SEQ ID NO: 2) was added in such an amount so that the final concentration thereof became 4 μM. The elevated fluorescence intensity at the exciting wavelength 340 nm and the fluorescence wavelength 500 nm was measured by a fluorescence plate reader. The concentration of a test compound to be needed to inhibit an enzyme activity in the presence of a test compound in several concentrations by 50% was calculated as an IC50 value. The test compounds were diluted in DMSO and used in this Experiment.

[1] = tested on: abdominal skin of CD male rats; assay: Testing for irritation by single subcutaneous administration to rats; type: in vivo; set-up: key: — No inflammation; Amount of Inflammation: * < ** < *** < ****; Amount of Inflammation: * < ** < *** < ****; Amount of Inflammation: * < ** < *** < ****; Amount of Inflammation: * < ** < *** < ****; details: single subcutaneous administration 0.1 ml, 2% in DMSO and saline
Procedure: Experiment 2: Testing for Irritation by Single Subcutaneous Administration to Rats
A test compound was measured and dissolved in DMSO and a saline solution in a concentration of 2%.

SMILES	IC50 (Recombinant human renin) [µM]	Observation at Administration Site, One day after administration [1]	Observation at Administration Site, Three days after administration [1]
CCC(=O)NCCN1C(=O)C(C)(C)Oc2cc(C)c(C(=O)N(C(C)C)C3CCCN(C(=O)OC(C)OC(=O)C4CCOCC4)C3)cc21 (single isomer, unassigned) [Example 87]	0.0096	—	—
COCCCCN1C(=O)C(C)(C)Oc2cc(C(F)(F)F)c(C(=O)N(C(C)C)[C@@H]3CCCNC3)cc21.Cl [Comparative Example 1, 4-(4-methoxybutyl)-2,2-dimethyl-3-oxo-N-[(3R)-3-piperidinyl]-N-(2-propanyl)-7-(trifluoromethyl)-3,4-dihydro-2H-1,4-benzoxazine-6-carboxamide hydrochloride, reference compound]		***	****
CCC(=O)NCCN1C(=O)C(C)(C)Oc2cc(C(F)(F)F)c(C(=O)N(C(C)C)[C@@H]3CCCNC3)cc21.Cl [Comparative Example 2, 2,2-dimethyl-3-oxo-N-[(3R)-3-piperidinyl]-4-[2-(propanoylamino)ethyl]-N-(2-propanyl)-7-(trifluoromethyl)-3,4-dihydro-2H-1,4-benzoxazine-6-carboxamide hydrochloride, reference compound]		****	****
CCC(=O)NCCN1C(=O)C2(CCC2)Oc2cc(C)c(C(=O)N(C(C)C)[C@@H]3CCCNC3)cc21.Cl [Comparative Example 3, N-isopropyl-7-methyl-3-oxo-N-[(3R)-piperidin-3-yl]-4-[2-(propionylamino)ethyl]-3,4-dihydrospiro[1,4-benzoxazine-2,1′-cyclobutane]-6-carboxamide hydrochloride, reference compound]		****	****
CCC(=O)NCCN1C(=O)C(C)(C)Oc2cc(C)c(C(=O)N(C(C)C)[C@@H]3CCCN(C(=O)OCc4oc(=O)oc4C)C3)cc21 [Example 2, (5-Methyl-2-oxo-1,3-dioxol-4-yl)methyl (3R)-3-[isopropyl({2,2,7-trimethyl-3-oxo-4-[2-(propionylamino)ethyl]-3,4-dihydro-2H-1,4-benzoxazin-6-yl}carbonyl)amino]piperidine-1-carboxylate]	0.0051	—	—
CCC(=O)NCCN1C(=O)C(C)(C)Oc2cc(C)c(C(=O)N(C(C)C)[C@@H]3CCCN(C(=O)O[C@H](C)OC(=O)CC)C3)cc21 [Example 53]	0.048		
CCC(=O)NCCN1C(=O)C(C)(C)Oc2cc(C)c(C(=O)N(C(C)C)C3CCCN(C(=O)OC(C)OC(=O)OC4CCCCC4)C3)cc21 (stereo not shown) [Example 54]	0.013		
CCC(=O)NCCN1C(=O)C(C)(C)Oc2cc(C)c(C(=O)N(C(C)C)C3CCCN(C(=O)OC(C)OC(=O)c4cccnc4)C3)cc21 (stereo not shown) [Example 59]	0.038		
CCC(=O)NCCN1C(=O)C(C)(C)Oc2cc(C)c(C(=O)N(C(C)C)C3CCCN(C(=O)OC(C)OC(=O)C4CCOCC4)C3)cc21 (stereo not shown) [Example 60]	0.0032		
CCC(=O)NCCN1C(=O)C(C)(C)Oc2cc(C)c(C(=O)N(C(C)C)C3CCCN(C(=O)OC(C)OC(=O)C(N)C(C)C)C3)cc21 (stereo not shown) [Example 62]	0.0028		
CCC(=O)NCCN1C(=O)C(C)(C)Oc2cc(C)c(C(=O)N(C(C)C)[C@@H]3CCCN(C(=O)OC(C)OC(=O)CCCO)C3)cc21 (stereo partly drawn) [Example 63, 1-[(4-Hydroxybutanoyl)oxy]ethyl (3R)-3-[isopropyl({2,2,7-trimethyl-3-oxo-4-[2-(propionylamino)ethyl]-3,4-dihydro-2H-1,4-benzoxazin-6-yl}carbonyl)amino]piperidine-1-carboxylate]	0.00096		
CCC(=O)NCCN1C(=O)C(C)(C)Oc2cc(C)c(C(=O)N(C(C)C)[C@@H]3CCCN(C(=O)O[C@@H](C)OC(=O)C(C)C)C3)cc21 [Example 66]	1.23		
CCC(=O)NCCN1C(=O)C(C)(C)Oc2cc(C)c(C(=O)N(C(C)C)[C@@H]3CCCN(C(=O)O[C@H](C)OC(=O)C(C)C)C3)cc21 [Example 67]	0.25	**	—
Cc1oc(=O)oc1COC(=O)N1CCC[C@@H](N(C(=O)c2cc3c(cc2C(F)(F)F)OC2(CC2)C(=O)N3CCNC(=O)C(F)F)C(C)C)C1 [Example 71]	0.0025		
CC(OC(=O)C(C)C)OC(=O)N1CCCC(N(C(=O)c2cc3c(cc2C(F)(F)F)OC2(CC2)C(=O)N3CCNC(=O)C(F)F)C(C)C)C1 (stereo not shown) [Example 72]	0.022		
CCC(=O)NCCN1C(=O)C(C)(COC)Oc2cc(C(F)(F)F)c(C(=O)N(C(C)C)C3CCCN(C(=O)OC(C)OC(=O)C(C)C)C3)cc21 (stereo not shown) [Example 74]	0.022		

SMILES	IC50 (Recombinant human renin) [µM]	Observation at Administration Site, One day after administration [1]	Observation at Administration Site, Three days after administration [1]
CCC(=O)NCCN1C(=O)C(C)(COC)Oc2cc(C(F)(F)F)c(C(=O)N(C(C)C)C3CCCN(C(=O)OC(OC(=O)CC)C(C)C)C3)cc21 (stereo not shown) [Example 75]	0.00074		
CCC(=O)NCCN1C(=O)C(C)(COC)Oc2cc(C(F)(F)F)c(C(=O)N(C(C)C)C3CCCN(C(=O)OC(OC(=O)C(C)C)C(C)C)C3)cc21 (stereo not shown) [Example 76]	0.00056		
CCC(=O)NCCN1C(=O)C2(CCC2)Sc2cc(C)c(C(=O)N(C(C)C)[C@@H]3CCCN(C(=O)OCc4oc(=O)oc4C)C3)cc21 [Example 78]	0.02		
CCC(=O)NCCN1C(=O)C2(CCC2)Oc2cc(C)c(C(=O)N(C(C)C)C3CCCN(C(=O)OC(C)OC(=O)c4ccc(C)cc4)C3)cc21 (stereo not shown) [Example 79, 1-{[(4-Methylphenyl)carbonyl]oxy}ethyl 3-[({7-methyl-3-oxo-4-[2-(propanoylamino)ethyl]-3,4-dihydrospiro[1,4-benzoxazine-2,1′-cyclobutan]-6-yl}carbonyl)(2-propanyl)amino]-1-piperidinecarboxylate]	0.0053	***	***
CCC(=O)NCCN1C(=O)C2(CCC2)Oc2cc(C)c(C(=O)N(C(C)C)[C@@H]3CCCN(C(=O)OCc4oc(=O)oc4C)C3)cc21 [Example 81]	0.0017	**	—
CCC(=O)NCCN1C(=O)C2(CCC2)Oc2cc(C)c(C(=O)N(C(C)C)[C@@H]3CCCN(C(=O)O[C@H](C)OC(=O)C(C)C)C3)cc21 [Example 82]	0.53	**	—
CCC(=O)NCCN1C(=O)C2(CCC2)Oc2cc(C)c(C(=O)N(C(C)C)[C@@H]3CCCN(C(=O)O[C@@H](C)OC(=O)C(C)C)C3)cc21 [Example 83]	0.505		
CCC(=O)NCCN1C(=O)C2(CCC2)Oc2cc(C)c(C(=O)N(C(C)C)C3CCCN(C(=O)OC(C)OC(=O)CCCOC)C3)cc21 (stereo not shown) [Example 84]	0.021		
CCC(=O)NCCN1C(=O)C(C)(COC)Oc2cc(C)c(C(=O)N(C(C)C)C3CCCN(C(=O)OC(C)OC(=O)CC)C3)cc21 (stereo not shown) [Example 86]	0.014		
CCC(=O)NCCN1C(=O)C2(CCC2)Oc2cc(C)c(C(=O)N(C(C)C)[C@@H]3CCCN(C(=O)OC(C)OC(=O)c4cccnc4)C3)cc21 (stereo partly drawn) [Example 89, 1-[({(3R)-3-[({7-Methyl-3-oxo-4-[2-(propanoylamino)ethyl]-3,4-dihydrospiro[1,4-benzoxazine-2,1′-cyclobutan]-6-yl}carbonyl)(2-propanyl)amino]-1-piperidinyl}carbonyl)oxy]ethyl 3-pyridine carboxylate]	0.0019		
CCOC(=O)O[C@@H](C)OC(=O)N1CCC[C@@H](N(C(=O)c2cc3c(cc2C)OC(C)(C)C(=O)N3CCNC(=O)CC)C(C)C)C1 [Example 90]	0.73		
CCOC(=O)O[C@H](C)OC(=O)N1CCC[C@@H](N(C(=O)c2cc3c(cc2C)OC(C)(C)C(=O)N3CCNC(=O)CC)C(C)C)C1 [Example 91]	0.71		
CCC(=O)NCCN1C(=O)[C@](C)(COC)Oc2cc(C)c(C(=O)N(C(C)C)[C@@H]3CCCN(C(=O)O[C@@H](C)OC(=O)C(C)C)C3)cc21 [Example 94]	1.89		
CCC(=O)NCCN1C(=O)C2(CCC2)Oc2cc(C)c(C(=O)N(C(C)C)C3CCCN(C(=O)OC(C)OC(=O)C(F)F)C3)cc21 (stereo not shown) [Example 97]	0.00013		
CCC(=O)NCCN1C(=O)C(C)(C)Oc2cc(C)c(C(=O)N(C(C)C)C3CCCN(C(=O)OC(C)OC(=O)CC4CC4)C3)cc21 (stereo not shown) [Example 98]	0.0091		
